As a reminder, the EC50 is the midpoint of the concentration-response curve.

This experiment concerns the target T1, glucocorticoid receptor (GR) (Homo sapiens, UniProt P04150).
T1 sequence (P04150 521-777): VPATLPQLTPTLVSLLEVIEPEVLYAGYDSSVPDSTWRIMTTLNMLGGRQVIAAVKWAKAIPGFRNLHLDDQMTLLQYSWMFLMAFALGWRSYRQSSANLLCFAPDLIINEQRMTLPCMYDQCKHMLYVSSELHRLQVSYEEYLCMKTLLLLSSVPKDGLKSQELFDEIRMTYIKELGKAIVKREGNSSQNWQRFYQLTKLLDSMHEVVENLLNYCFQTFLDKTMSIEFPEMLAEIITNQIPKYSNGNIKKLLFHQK
As to the kind of experiment: Assay for agonist activity on glucocorticoid receptor (luciferase reporter, HEK293 cells transfected with pBIND-GR plasmid). The experiment is classed as cell-based. The note with it: HEK293 cells transfected with pBIND-GR, luciferase signal; read-out: GR agonist EC50. As to the method:
Pharmacological Example 1: Assay for Agonist Activity on Glucocorticoid Receptor (GR)
The test compounds were subjected to a 4-fold serial dilution starting from an initial concentration of 10 µ M, generating a 10-point concentration gradient with duplicate wells for each concentration. The blank control consisted of 0.1 % DMSO.
The HEK293 stable cell line […] transfected with glucocorticoid receptor (GR) (ICE Bioscience, Lot No. TYP-20220519) was cultured in Dulbecco's Modified Eagle Medium (DMEM) supplemented with 10% fetal bovine serum (FBS) and 200 µ g/ml Hygromycin B in a cell incubator containing 5% CO2 at 37 °C. The spent medium was aspirated and the cells were washed once with phosphate-buffered saline (PBS). Then, 1 mL of TrypLE™ Express solution was added, and the cells were incubated at 37 °C for approximately 2 min. When the cells detached from the bottom of the cell culture dish, approximately 5 mL of pre-warmed complete medium at 37 °C was added. The cell suspension was gently pipetted with a pipette to dissociate clumped cells. The cell suspension was transferred to a sterile centrifuge tube and centrifuged at 1000 rpm for 5 min to pellet the cells for experiments or subculture.
HEK293 cells were digested and seeded into 6-cm culture dishes. The pBIND-GR plasmid was transfected into the HEK293 cells using a transfection reagent, resulting in HEK293 cells successfully transfected with the pBIND-GR plasmid. The cells were resuspended in phenol red-free DMEM medium containing 5% charcoal-stripped serum, counted, and then seeded into 96-well plates. The test compounds were added, and the plates were then incubated in an incubator. The luminescence signal values were measured using a multimode microplate reader following the instructions of the luciferase assay kit. The EC50 values of each test compound were calculated using the nonlinear fitting formula with GraphPad Prism 8.0 software.
(In general: Reporter assays use an easily measured gene product as a stand-in for the process of interest.)
With `C[C@]12C=CC(=O)C=C1[C@@H](F)C[C@H]1[C@@H]3C[C@H]4OC(c5ccc(NC(=O)C6COC(=O)C6)cc5)O[C@@]4(C(=O)CO)[C@@]3(C)C[C@H](O)[C@@]12F` (stereo partly drawn) [Compound 2, N-(4-((2S,6aS,6bR,7S,8aS,8bS,11aR,12aS,12bS)-2,6b-Difluoro-7-hydroxy-8b-(2-hydroxyacetyl)-6a,8a-dimethyl-4-oxo-2,4,6a,6b,7,8,8a,8b,11a,12,12a,12b-dodecahydro-1H-naphtho[2',1':4,5]indeno[1,2-d][1,3]dioxol-10-yl)phenyl)-5-oxotetrahydrofuran-3-carboxamide], the half-maximal effective concentration (EC50) stood at 12.2 nM.

On to `C[C@]12C=CC(=O)C=C1[C@@H](F)C[C@H]1[C@@H]3C[C@H]4OC(c5ccc(CNC6COC(=O)C6)cc5F)O[C@@]4(C(=O)CO)[C@@]3(C)C[C@H](O)[C@@]12F` (stereo partly drawn) [Compound 12, (2S,6aS,6bR,7S,8aS,8bS,11aR,12aS,12bS)-2,6b-Difluoro-10-(2-fluoro-4-(((5-oxotetrahydrofuran-3-yl)amino)methyl)phenyl)-7-hydroxy-8b-(2-hydroxyacetyl)-6a,8a-dimethyl-1,2,6a,6b,7,8,8a,8b,1 1a,12,12a,12b-dodecahydro-4H-naphtho[2',1':4,5]indeno[1,2-d][1,3]dioxol-4-one], for which the EC50 amounted to 4.06 nM.

`C[C@]12C=CC(=O)C=C1CC[C@@H]1[C@@H]2[C@@H](O)C[C@@]2(C)[C@H]1C[C@H]1OC(c3ccc(COC4COC(=O)C4)cc3)O[C@]12C(=O)CO` (stereo partly drawn) [Compound 31, (6aR,6bS, 7S,8aS,8bS,11aR,12aS,12bS)-7-Hydroxy-8b-(2-hydroxyacetyl)-6a,8a-dimethyl-10-(4-(( (5-oxotetrahydrofuran-3-yl)oxy)methyl)phenyl)-1,2,6a,6b,7,8,8a,8b,11a,12,12a,12b-dodecahydro-4H-naphtho[2',1':4,5]indeno[1,2-d][1,3]dioxol-4-one]: the half-maximal effective concentration (EC50) was 8.13 nM.

With `C[C@]12C=CC(=O)C=C1CC[C@@H]1[C@@H]2[C@@H](O)C[C@@]2(C)[C@H]1C[C@H]1OC(c3ccc(CSC4COC(=O)C4)cc3C#N)O[C@]12C(=O)CO` (stereo partly drawn) [Compound 32, 2-((6aR,6bS,7S,8aS,8bS,11aR,12aS,12bS)-7-Hydroxy-8b-(2-hydroxyacetyl)-6a,8a-dimethyl-4-oxo-2,4,6a,6b,7,8,8a,8b,11a,12,12a,12b-dodecahydro-1H-naphtho[2',1':4,5]indeno[1,2-d][1,3]dioxol-10-yl)-5-(((5-oxotetrahydrofuran-3-yl)thio)methyl)benzonitrile], the EC50 was 3.67 nM.

With `C[C@]12C=CC(=O)C=C1CC[C@H]1[C@@H]3C[C@H]4OC(c5ccc(OC6CCOC6=O)cc5)O[C@@]4(C(=O)CO)[C@@]3(C)C[C@H](O)[C@@]12F` (stereo partly drawn) [Compound 40, (6aS,6bR,7S,8aS,8bS,11aR,12aS,12bS)-6b-Fluoro-7-hydroxy-8b-(2-hydroxyacetyl)-6a,8a-dimethyl-10-(4-((2-oxotetrahydrofuran-3-yl)oxy)phenyl)-1,2,6a,6b,7,8,8a,8b,11a,12,12a,12b-dodecahydr o-4H-naphtho[2',1':4,5]indeno[1,2-d][1,3]dioxol-4-one], the EC50 was 30.7 nM.

In the case of `C[C@]12C=CC(=O)C=C1[C@@H](F)C[C@H]1[C@@H]3C[C@H]4OC(C5CCC(NC(=O)C6COC(=O)C6)CC5)O[C@@]4(C(=O)SCF)[C@@]3(C)C[C@H](O)[C@@]12F` (stereo partly drawn) [Compound 6, S-(Fluoromethyl) (2S,6aS,6bR,7S,8aS,8bS,11aR,12aS,12bS)-2,6b-difluoro-7-hydroxy-6a,8a-dimethyl-4-oxo-10-(4-(5-oxotetrahydrofuran-3-carboxamido)cyclohexyl)-1,2,4,6a,6b,7,8,8a,11a,12,12a,12b-dodecahydro-8bH-naphtho[2',1':4,5]indeno[1,2-d][1,3]dioxole-8b-carbothioate], the EC50 was 8.69 nM.

The record behind these values is patent publication EP4635969A1, “NOVEL GLUCOCORTICOID, METHOD FOR PREPARING SAME, AND USE THEREOF” (Tianjin Pharmaceutical Biotechnology Co., Ltd., priority 2022, dated 2024).
